Laboratory results published in BindingDB's records for doi:10.1016/j.bmcl.2008.04.044 (Wyeth Research, 2008).

Molecular target: Insulin-like growth factor 1 receptor (Homo sapiens, UniProt P08069)
Assay: In Vitro Kinase Inhibition Assay
Conditions: pH 7.5; 22 °C
Procedure: Assays were performed in microtiter plates in reaction buffer containing biotinylated substrate, ATP, and purified kinase in the presence of test compounds. After incubation, product was detected using a homogeneous time-resolved fluorescence […] assay (LANCE).

Chain of Insulin-like growth factor 1 receptor (P08069 31-736 limits assumed): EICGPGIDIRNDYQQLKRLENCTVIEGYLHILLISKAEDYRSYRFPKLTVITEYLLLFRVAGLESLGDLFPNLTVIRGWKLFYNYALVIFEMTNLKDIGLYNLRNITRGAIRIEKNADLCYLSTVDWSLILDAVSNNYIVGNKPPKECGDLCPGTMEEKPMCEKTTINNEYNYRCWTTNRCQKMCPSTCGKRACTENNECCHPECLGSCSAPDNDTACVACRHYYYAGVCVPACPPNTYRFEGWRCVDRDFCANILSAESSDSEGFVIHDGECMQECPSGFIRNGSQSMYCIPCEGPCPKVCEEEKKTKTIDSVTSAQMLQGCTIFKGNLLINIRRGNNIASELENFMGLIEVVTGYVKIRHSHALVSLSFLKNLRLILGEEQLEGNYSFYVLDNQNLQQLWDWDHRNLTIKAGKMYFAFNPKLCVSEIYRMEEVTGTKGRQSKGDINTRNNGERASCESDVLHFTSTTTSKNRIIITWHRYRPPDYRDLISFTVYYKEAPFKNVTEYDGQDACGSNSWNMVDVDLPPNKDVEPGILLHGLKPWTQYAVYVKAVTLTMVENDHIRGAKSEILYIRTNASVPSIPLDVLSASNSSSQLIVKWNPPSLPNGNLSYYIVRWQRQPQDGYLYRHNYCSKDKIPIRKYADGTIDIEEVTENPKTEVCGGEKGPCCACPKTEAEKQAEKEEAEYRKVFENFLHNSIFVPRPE
Chain of Insulin-like growth factor 1 receptor (P08069 741-1367 limits assumed): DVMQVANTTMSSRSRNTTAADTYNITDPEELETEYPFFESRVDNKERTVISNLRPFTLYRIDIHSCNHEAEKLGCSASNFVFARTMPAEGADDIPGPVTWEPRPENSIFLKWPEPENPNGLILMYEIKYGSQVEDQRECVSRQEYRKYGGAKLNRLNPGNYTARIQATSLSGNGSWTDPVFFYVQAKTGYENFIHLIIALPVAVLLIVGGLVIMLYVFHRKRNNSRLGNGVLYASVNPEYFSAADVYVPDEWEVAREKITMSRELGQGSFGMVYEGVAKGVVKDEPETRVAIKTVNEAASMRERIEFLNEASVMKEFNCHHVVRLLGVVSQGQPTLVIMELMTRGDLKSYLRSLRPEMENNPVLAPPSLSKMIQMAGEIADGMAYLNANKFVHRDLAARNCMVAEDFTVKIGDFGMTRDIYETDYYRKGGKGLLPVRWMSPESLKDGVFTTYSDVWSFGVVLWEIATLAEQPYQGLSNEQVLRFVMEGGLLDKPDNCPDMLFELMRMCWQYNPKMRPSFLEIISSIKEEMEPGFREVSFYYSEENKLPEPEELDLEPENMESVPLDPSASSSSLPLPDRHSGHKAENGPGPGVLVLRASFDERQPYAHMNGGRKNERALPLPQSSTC

IC50, > 10 µM:
O=C1NC(=O)c2ccc(Nc3ccc4[nH]ccc4c3)cc2C1=CNc1ccc(CN2CCCCC2)cc1 [(4Z)-6-(1H-indol-5-ylamino)-4-({[4-(piperidin-1-ylmethyl)phenyl]amino}methylidene)-1,2,3,4-tetrahydroisoquinoline-1,3-dione]
O=C1NC(=O)c2ccc(Nc3ccc(Cl)cc3)cc2C1=CNc1ccc(CN2CCCCC2)cc1 [(4Z)-6-[(4-chlorophenyl)amino]-4-({[4-(piperidin-1-ylmethyl)phenyl]amino}methylidene)-1,2,3,4-tetrahydroisoquinoline-1,3-dione]
O=C1NC(=O)c2ccc(Nc3cccc(C(F)(F)F)c3)cc2C1=CNc1ccc(CN2CCCCC2)cc1 [(4Z)-4-({[4-(piperidin-1-ylmethyl)phenyl]amino}methylidene)-6-{[3-(trifluoromethyl)phenyl]amino}-1,2,3,4-tetrahydroisoquinoline-1,3-dione]
COc1cccc(Nc2ccc3c(c2)C(=CNc2ccccc2)C(=O)NC3=O)c1 [(4Z)-6-[(3-methoxyphenyl)amino]-4-[(phenylamino)methylidene]-1,2,3,4-tetrahydroisoquinoline-1,3-dione]
O=C1NC(=O)c2ccc(Nc3cccc(Cl)c3)cc2C1=CNc1ccccc1 [(4Z)-6-[(3-chlorophenyl)amino]-4-[(phenylamino)methylidene]-1,2,3,4-tetrahydroisoquinoline-1,3-dione]
CN(C)c1ccc(Nc2ccc3c(c2)C(=CNc2ccc(CN4CCCCC4)cc2)C(=O)NC3=O)cc1 [(4Z)-6-{[4-(dimethylamino)phenyl]amino}-4-({[4-(piperidin-1-ylmethyl)phenyl]amino}methylidene)-1,2,3,4-tetrahydroisoquinoline-1,3-dione]
COc1cc(Nc2ccc3c(c2)C(=CNc2ccc(CN4CCCCC4)cc2)C(=O)NC3=O)cc(C(F)(F)F)c1 [(4Z)-6-{[3-methoxy-5-(trifluoromethyl)phenyl]amino}-4-({[4-(piperidin-1-ylmethyl)phenyl]amino}methylidene)-1,2,3,4-tetrahydroisoquinoline-1,3-dione]
Nc1cccc(Nc2ccc3c(c2)C(=CNc2ccc(CN4CCCCC4)cc2)C(=O)NC3=O)c1 [(4Z)-6-[(3-aminophenyl)amino]-4-({[4-(piperidin-1-ylmethyl)phenyl]amino}methylidene)-1,2,3,4-tetrahydroisoquinoline-1,3-dione]
Cc1cccc(Nc2ccc3c(c2)C(=CNc2ccc(CN4CCCCC4)cc2)C(=O)NC3=O)c1 [(4Z)-6-[(3-methylphenyl)amino]-4-({[4-(piperidin-1-ylmethyl)phenyl]amino}methylidene)-1,2,3,4-tetrahydroisoquinoline-1,3-dione]
CCOC(=O)c1ccc(Nc2ccc3c(c2)C(=CNc2ccc(CN4CCCCC4)cc2)C(=O)NC3=O)cc1 [ethyl 4-{[(4Z)-1,3-dioxo-4-({[4-(piperidin-1-ylmethyl)phenyl]amino}methylidene)-1,2,3,4-tetrahydroisoquinolin-6-yl]amino}benzoate]
